Test results from patent US10946053B2, “Composition containing mixed extract of mulberry and Poria cocos bark for preventing, improving or treating neurodegenerative disorders” (NeuroBo Pharmaceuticals, Inc., priority 2014, dated 2021).

Key:
human Tau [pS199] = assay: Phosphorylated tau in neuronal cell line (ELISA), Aβ42 treated; type: cell-based; conditions: Donepezil 10 μM
Experimental: Phosphorylated tau levels were measured in order to confirm the inhibitory effect of crude herbal extracts on tau hyper-phosphorylation. […] The phosphorylated tau was measured using human Tau [pS199] enzyme-linked immunosorbent assay (ELISA) KIT purchased from Invitrogen.

Aβ Infusion Model (Aβ42) [1] = assay: Passive avoidance task, Aβ42 administration model; type: in vivo, ICR mice; conditions: Aβ42 injected, once a day for 11 days, extracts 100 mg/kg, Donepezil 1 mg/kg
Experimental: (§1) Six-week-old ICR mice were used in the experiment. The animals were anesthetized, fixed in a stereotaxic apparatus (Stoelting) and injected with 3 μl of vehicle (artificial CSF) or Aβ42 for 6 minutes using a Hamilton micro syringe (fitted with a 26-gauge needle).
(§2) Animals treated with Aβ42 were randomly divided into experimental groups. From 2 days after administration of Aβ42, the experimental drug and the positive control drug were administered once a day for 11 days.
(§3) The lyophilized drug, comparative drug and control drug were suspended in 3% HPMC aqueous solution, and all the drugs were prepared on the day of the experiment.
Passive avoidance experiments were performed in two independently separated bright and dark square boxes. Bright areas (20×20×20 cm) were illuminated with 50 W incandescent lamps. Light and dark areas (20×20×20 cm) were spaced 1 cm apart and 2 mm stainless steel rods were installed. […]
(§4) Acquisition trials were conducted 24 hours later. […] The time that the animals entered the dark zone was measured.
(§5) After performing the acquisition trials and giving a 24-hour rest period, the experimental animals were placed in a bright area for measuring the retention trial and the time until entering the dark area was measured. […]

Aβ Infusion Model (Aβ42) [2] = assay: Y-maze test, Aβ42 administration model; type: in vivo, ICR mice; conditions: extracts 100 mg/kg, Donepezil 1 mg/kg
Experimental: as §1, §2, §3
(§6) The Y-maze experiment was conducted to investigate the effect of short-term memory. The animals were placed on one arm of the Y-maze and allowed to move freely for 8 minutes. Spontaneous alternation and total number of entries were measured. When the animals were consecutively entered into three arms, they were defined as alternation entry, and the ratio was calculated by the following equation 1. Spontaneous alternation ratio (%)=[(number of changes)/(total number of arm entry−2)]×100 [Equation 1]

[3] = test system: NeuN, a neural cell marker; assay: Immunohistochemical staining with NeuN in hippocampus, Aβ infusion model (FIG. 1); type: in vivo, ICR mice
Experimental: as §1, §2
For immunohistochemical staining, the Aβ infusion animal described in Experimental Example 1-1 was perfused with 1×PBS (phosphate buffered saline), fixed with 4% paraformaldehyde, and brain was extracted. This was fixed in the same solution for one day and stored in a 30% sucrose solution and the solution was changed every two days until frozen at […] After that, brain tissue was frozen sufficiently at −20° C. by dropping OCT (optimal cutting temperature) compound in a cryostat, and then made into a 30 μm-thick section, and stored at 4° C. in a preservative solution. Immunohistochemical staining was performed with the hippocampus portion. […]

Aβ Infusion Model (Aβ42) [4] = assay: Novel object recognition (NOR) task, Aβ42 administration model; type: in vivo, ICR mice; conditions: extracts 100 mg/kg, Donepezil 1 mg/kg
Experimental: as §3
(§7) Inside a black box of 45 cm width, 45 cm length, 50 cm height, two plastic objects of the same size but different shapes were placed. The experimental animals were allowed to move freely for 8 minutes and the time spent on each object was measured (training session) 24 hours later, the experimental animals were placed in a box with one familiar object and one new object in the training session and the time spent in each object was measured (test session). The recorded values were calculated using the following equation (2), which is expressed as a recognition result of a new object. Recognition rate of new objects (%)=Time spent on new objects/(Time spent on new objects+Time spent on experienced objects)×100 [Equation 2]

[5] = test system: Scopolamine Induced Memory Impairment Model; assay: Passive avoidance task, scopolamine induced memory impairment model; type: in vivo, ICR mice; conditions: scopolamine 1 mg/kg i.p., oral, extracts 100 mg/kg, Donepezil 1 mg/kg
Experimental: (§8) Six-week-old ICR mice were used for the experiment and each experimental group consisted of 8 animals.
(§9) Normal animals were injected with the same amount of physiological saline. Behavioral studies were performed after 30 minutes of scopolamine administration.
as §3
Passive avoidance experiments were performed in two independently separated bright and dark square boxes. Bright areas (20×20×20 cm) were illuminated with 50 W incandescent lamps. Light and dark areas (20×20×20 cm) were spaced 1 cm apart and 2 mm stainless steel rods were installed.
In the habituation phase, the two sections were separated by a guillotine door (5×5 cm), and the guillotine door was opened after 30 seconds after placing the experimental animals in the light section. The animals were allowed to freely navigate. When they reached the dark area, the guillotine door was closed and the animals were taken out after 3 seconds.
as §4, §5

beta-nerve growth factor = assay: NGF level measurement in nerve cell line (ELISA); type: cell-based, human; conditions: extracts 10 μg/ml, Donepezil 10 μM
Experimental: NGF levels were measured in order to determine the mechanism of cognitive improvement of the herbal mixed extracts. […] NGF levels were measured using a beta-nerve growth factor human enzyme-linked immunosorbent assay (ELISA) KIT purchased from Abcam.

[6] = test system: Scopolamine Induced Memory Impairment Model; assay: Y-maze test, scopolamine model; type: in vivo, ICR mice; conditions: extracts 100 mg/kg, Donepezil 1 mg/kg
Experimental: as §8, §9, §3, §6

[7] = test system: Scopolamine Induced Memory Impairment Model; assay: Novel object recognition (NOR) task, scopolamine model; type: in vivo, ICR mice; conditions: extracts 100 mg/kg, Donepezil 1 mg/kg, test session
Experimental: as §8, §9, §3, §7

## COc1cc2c(cc1OC)C(=O)C(CC1CCN(Cc3ccccc3)CC1)C2 (stereo not shown) [Donepezil]
Human Tau [pS199]; SH-SY5Y cells, Aβ42
  inhibitory effect on tau phosphorylation, in words: did not show any inhibitory effect
Human Tau [pS199]; differentiated SH-SY5Y cells, Aβ42 48 hours, extracts 10 μg/ml
  Phosphorus tau pg/g protein: 1699 pg/g protein
Aβ Infusion Model (Aβ42) [1]; acquisition trial
  Acquisition time: 78.4
Aβ Infusion Model (Aβ42) [1]; retention trial
  Retention time: 244.2
Aβ Infusion Model (Aβ42) [2]
  spontaneous alternation (%): 70.5%
Aβ Infusion Model (Aβ42) [2]; 8 minutes
  Total number of entries: 61
  True enter: 43
[3]
  NeuN expression / neuroprotective effect (FIG. 1), in words: failed to show neuroprotective effects
Aβ Infusion Model (Aβ42) [4]
  Total object recognition on time: 26.8
[5]; retention trial 24 h after acquisition
  Retention time: 243.5
[5]; time to enter dark area, acquisition trial
  Acquisition time: 77.4
beta-nerve growth factor; SH-SY5Y cells
  effect of promoting NGF production in nerve cell line, in words: did not show the effect of promoting NGF production
beta-nerve growth factor; differentiated SH-SY5Y cells
  NGF (pg/g protein): 421 pg/g protein
[6]
  spontaneous alternation (%): 67.2%
[6]; 8 minutes
  Total number of entries: 64
  True enter: 43
[7]
  Familiar object recognition time: 7.9
  New object recognition time: 12.9
  Total object recognition time: 20.8
